Experimental data from paper PMC10609081, “In Vivo Trafficking of the Anticancer Drug Tris(8-Quinolinolato) Gallium (III) (KP46) by Gallium-68/67 PET/SPECT Imaging” (Molecules, 2023).

Key:
[1] = molecular target: T1, human serum albumin (HSA) (Homo sapiens, UniProt P02768); assay: Binding to human serum albumin by size exclusion chromatography (PD MidiTrap G-25); format: in vitro ADME
T1 construct: purchased Sigma Aldrich
Method: Solutions of human apo-transferrin (apo-Tf, 2 mg/mL) and human serum albumin (HSA, 50 mg/mL) (both purchased from Sigma Aldrich) were dissolved in aqueous NaHCO3 (5 mM, pH = 8) and PBS (pH = 7.4), respectively. An amount of 1 MBq of tracer-level [^68Ga]KP46 (13–20 µL) or [^68Ga]gallium acetate (20–25 µL) was added to 1.2 mL of the apo-Tf solution and to a similar apo-Tf-free NaHCO3 solution (control). Similarly, [^68Ga]KP46 and [^68Ga]gallium acetate solutions were added to 1.5 mL PBS containing HSA or HSA-free PBS (control). The samples were incubated for 60 min at 37 °C (pH = 7–7.5). From each mixture, 0.5 mL was loaded into PD MidiTrap G-25 size exclusion chromatography cartridges that were preconditioned with 8 mL of NaHCO3 (5 mM) (for apo-Tf binding) or PBS (for HSA binding). Fractions (0.5 mL) were collected and counted with a Wallac gamma counter. Protein absorbance at 280 nm was measured using a Nanodrop spectrophotometer. To investigate the speciation of the Ga–KP46 complex in the presence of apo-Tf at later time points (up to 48 h), the experiment was repeated with ^67Ga.

[2] = test system: A375 (human melanoma) cells; assay: Cellular uptake of radiogallium in cultured A375 cells; format: cell-based; settings: 1 h
Method: One million A375 (human melanoma) cells were suspended in 0.5 mL of Dulbecco’s Modified Eagle’s Medium (500 mL DMEM, low-glucose medium with 50 mL 10% FBS, 5 mL of L-glutamine, and 5 mL of penicillin and streptomycin) in 1.5 mL Eppendorf tubes. An amount of 10 µL of no-carrier-added [^68Ga]KP46 or [^68Ga]gallium acetate was added to the cell suspensions (giving a ^68Ga concentration of ca. 20 pM) and to similar tubes containing medium but no cells (to check and compensate for adhesion of radioactivity to tubes). Samples were incubated for 60 min at 37 °C under 5% CO2 and then centrifuged (Sci Spin Mini) for three minutes at 1500 RPM. The supernatants were transferred to fresh Eppendorf tubes. The pellets were washed twice with 0.5 mL PBS, following the same centrifugation protocol, and washes were added to the supernatant tubes. Supernatants and cell pellets were measured using a gamma counter to determine the average activity in cell pellets as a % of the total activity for each sample. The intracellular-to-extracellular ^68Ga concentration ratio was also estimated by correcting for the different volume of supernatant and cell pellet using an estimated spherical cell diameter of 17.5 μm, which leads to an estimated volume of the cell pellet (10^6 cells) of 2.8 μL.

[3] = Pilot study 1: oral [68Ga]KP46, mice kept anaesthetised for four hours, ex vivo biodistribution; format: in vivo; settings: anaesthetised 0-4 h
Method: 67Ga citrate to 67Ga chloride conversion method
67Ga was provided as [67Ga]Ga-citrate, typically 418-430 MBq in 5.5 ml at the time of receipt (76-78 MBq/ml). The 67Ga-citrate solution was passed through a Sep-Pak plus light silica cartridge (part number WAT023537) at a flow rate of 1 ml/min to trap the 67Ga on the silica cartridge. The eluate was passed through again to capture more (total 80%) of the available radioactivity on the cartridge.
The cartridge was then washed twice with 5 ml of H2O to remove citric acid, then eluted with 600 µl of 0.1 M HCl in 50 µl fractions. Fractions with the highest activity (fraction 4, 5, and 6) were used for […]
Tumour xenograft development
500 Figure S11. Tumour growth profile of A375
400 human melanoma cells in female athymic nude mice (2.5 x 10^6 cells). Data are 300 reported as mean ± SD (n=24).
Developing a method for the oral administration of [68Ga]KP46
In the first pilot study, mice bearing a tumour xenograft (A375) were anaesthetised, orally administered with [68Ga]KP46 (10 MBq, 400 µl) and PET scanned (no CT scan was performed) for four hours (n = 1), or orally administered with [68Ga]KP46 (1–2 MBq, 400 µl) and kept anaesthetised for four hours (n = 3), before being culled for organ harvesting and gamma counting. […]
radioactivity was in the stomach, with minimal uptake in the small intestine. […]

T1 sequence (P02768 25-609): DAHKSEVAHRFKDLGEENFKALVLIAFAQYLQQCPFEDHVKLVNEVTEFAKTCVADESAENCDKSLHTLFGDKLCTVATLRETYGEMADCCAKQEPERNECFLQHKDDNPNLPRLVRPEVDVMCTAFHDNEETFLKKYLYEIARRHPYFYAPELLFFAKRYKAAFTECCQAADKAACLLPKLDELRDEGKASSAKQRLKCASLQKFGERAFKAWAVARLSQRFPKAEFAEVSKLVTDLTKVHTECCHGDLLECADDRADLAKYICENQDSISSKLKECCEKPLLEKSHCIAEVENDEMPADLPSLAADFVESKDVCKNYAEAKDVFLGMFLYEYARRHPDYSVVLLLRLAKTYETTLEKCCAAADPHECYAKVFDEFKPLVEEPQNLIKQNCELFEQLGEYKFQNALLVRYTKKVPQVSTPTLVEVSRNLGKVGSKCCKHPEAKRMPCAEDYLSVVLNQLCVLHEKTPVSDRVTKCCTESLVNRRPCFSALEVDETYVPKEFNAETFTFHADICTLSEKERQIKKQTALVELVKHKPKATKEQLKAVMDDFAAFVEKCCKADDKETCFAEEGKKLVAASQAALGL

## [68Ga+3].[O-]c1cccc2cccnc12.[O-]c1cccc2cccnc12.[O-]c1cccc2cccnc12 [[^68Ga]KP46]
[1]; 1 h incubation at 37 °C, HSA 50 mg/mL in PBS
  radioactivity coeluting with HSA: about 16%
[1]; incubated 1 h with HSA
  binding of radioactivity to HSA: significant binding
[2]; DMEM containing FBS, n = 3
  cellular uptake (% radioactivity added, corrected for nonspecific binding to vessel): 2.55% ± 1%
[2]; corrected data, estimated cell pellet volume 2.8 μL
  intracellular-to-extracellular concentration ratio: 14 ± 6
[3]
  activity in tumour, ex vivo: 0.6 ± 0.3 %ID/g
